From ChEMBL document CHEMBL1201862, “PubChem BioAssay data set” (2004)
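Compound exposure: 48 hours, 5 concentrations, 96-well plates. Here, GI50 denotes the concentration required for 50% inhibition of growth.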 Active and inactive are the calls of the source. Cut-off read from the data, not from the text of the source: active = GI50 up to about 1.1 µM and inactive = higher.

Columns and labels:
Assay in all cases: DTP human tumour cell line panel, 48 h
786-0 = system: 786-0
A498 = system: A498
A549 = system: A549
CAKI-1 = system: CAKI-1
HCT-15 = system: HCT-15
Hs-578T = system: Hs-578T
KM12 = system: KM12
MDA-MB-231 = system: MDA-MB-231
SF-295 = system: SF-295
SF-539 = system: SF-539
SK-MEL-5 = system: SK-MEL-5
SK-OV-3 = system: SK-OV-3
SNB-19 = system: SNB-19
SW-620 = system: SW-620
T47D = system: T47D
U-251 = system: U-251
UACC-257 = system: UACC-257
NCI-H522 = system: NCI-H522
UO-31 = system: UO-31

## COc1cc(Cl)c(CC(=O)c2c[nH]c3ccccc23)cc1OC
786-0
  GI50: 13.7 µM (inactive)
A498
  GI50: 12.1 µM (inactive)
A549
  GI50: > 100 µM (inactive)
CAKI-1
  GI50: > 36.1 µM (inactive)
HCT-15
  GI50: > 100 µM
Hs-578T
  GI50: 23.6 µM (inactive)
KM12
  GI50: > 100 µM (inactive)
MDA-MB-231
  GI50: 8.95 µM (inactive)
SF-295
  GI50: 16.1 µM (inactive)
SF-539
  GI50: 6.22 µM (inactive)
SK-MEL-5
  GI50: > 100 µM (inactive)
SK-OV-3
  GI50: 8.07 µM (inactive)
SNB-19
  GI50: 13.4 µM (inactive)
SW-620
  GI50: > 100 µM (inactive)
T47D
  GI50: > 28.5 µM (inactive)
U-251
  GI50: 8.38 µM (inactive)
UACC-257
  GI50: > 100 µM (inactive)

## COc1ccccc1C(=O)c1c(NCc2ccccc2)c(=O)c1=O
786-0
  GI50: 40.2 µM (inactive)
A498
  GI50: > 100 µM (inactive)
A549
  GI50: 0.424 µM (active)
CAKI-1
  GI50: 35.2 µM (inactive)
HCT-15
  GI50: 27.4 µM
Hs-578T
  GI50: > 100 µM (inactive)
KM12
  GI50: > 100 µM (inactive)
MDA-MB-231
  GI50: > 100 µM (inactive)
NCI-H522
  GI50: 11.5 µM (inactive)
SF-295
  GI50: > 100 µM (inactive)
SF-539
  GI50: 0.0841 µM (active)
SK-MEL-5
  GI50: > 100 µM (inactive)
SK-OV-3
  GI50: > 100 µM (inactive)
SNB-19
  GI50: > 100 µM (inactive)
SW-620
  GI50: 18.2 µM (inactive)
U-251
  GI50: 66.4 µM (inactive)
UACC-257
  GI50: > 100 µM (inactive)
UO-31
  GI50: > 100 µM (inactive)

## CC(=O)Nc1ccc2c(C(=O)O)c(C)c(O)nc2n1
786-0
  GI50: > 100 µM (inactive)
A549
  GI50: > 100 µM (inactive)
CAKI-1
  GI50: > 100 µM (inactive)
HCT-15
  GI50: > 100 µM
Hs-578T
  GI50: > 100 µM (inactive)
KM12
  GI50: > 100 µM (inactive)
MDA-MB-231
  GI50: > 100 µM (inactive)
NCI-H522
  GI50: 32.5 µM (inactive)
SF-295
  GI50: > 100 µM (inactive)
SF-539
  GI50: > 100 µM (inactive)
SK-MEL-5
  GI50: > 100 µM (inactive)
SK-OV-3
  GI50: > 100 µM (inactive)
SNB-19
  GI50: 25.5 µM (inactive)
SW-620
  GI50: > 100 µM (inactive)
T47D
  GI50: 89.7 µM (inactive)
U-251
  GI50: 46.9 µM (inactive)
UACC-257
  GI50: > 100 µM (inactive)
UO-31
  GI50: > 100 µM (inactive)

## CC(C)(C)OC(=O)NCCCC(=O)NC1(c2cc3ccccc3s2)CCCCC1
786-0
  GI50: 16.9 µM (inactive)
A498
  GI50: 17.6 µM (inactive)
A549
  GI50: 25.6 µM (inactive)
CAKI-1
  GI50: 22.1 µM (inactive)
HCT-15
  GI50: 15.6 µM
Hs-578T
  GI50: 24.6 µM (inactive)
KM12
  GI50: 17 µM (inactive)
NCI-H522
  GI50: 13.1 µM (inactive)
SF-295
  GI50: 16.6 µM (inactive)
SF-539
  GI50: 15.5 µM (inactive)
SK-MEL-5
  GI50: 5.89 µM (inactive)
SK-OV-3
  GI50: 29.6 µM (inactive)
SNB-19
  GI50: 34.8 µM (inactive)
SW-620
  GI50: 15.8 µM (inactive)
T47D
  GI50: 9.66 µM (inactive)
UACC-257
  GI50: 13.6 µM (inactive)
UO-31
  GI50: 4.61 µM (inactive)

## CN(CC(=O)O)c1ncc2c(n1)CCCC2
786-0
  GI50: > 100 µM (inactive)
A498
  GI50: > 100 µM (inactive)
A549
  GI50: > 100 µM (inactive)
CAKI-1
  GI50: > 100 µM (inactive)
HCT-15
  GI50: > 100 µM
Hs-578T
  GI50: > 100 µM (inactive)
KM12
  GI50: > 100 µM (inactive)
MDA-MB-231
  GI50: > 100 µM (inactive)
NCI-H522
  GI50: > 100 µM (inactive)
SF-295
  GI50: > 100 µM (inactive)
SF-539
  GI50: > 100 µM (inactive)
SK-MEL-5
  GI50: > 100 µM (inactive)
SK-OV-3
  GI50: > 100 µM (inactive)
SNB-19
  GI50: > 100 µM (inactive)
SW-620
  GI50: > 100 µM (inactive)
U-251
  GI50: > 100 µM (inactive)
UACC-257
  GI50: > 100 µM (inactive)
UO-31
  GI50: > 100 µM (inactive)

## CCOC(=O)C(NC(=O)c1ccccc1)(N1CCN(c2cc3c(cc2F)c(=O)c(C(=O)O)cn3C2CC2)CC1)C(F)(F)F (stereo not given)
786-0
  GI50: 32.4 µM (inactive)
A498
  GI50: 28.1 µM (inactive)
A549
  GI50: 34 µM (inactive)
CAKI-1
  GI50: 19.3 µM (inactive)
Hs-578T
  GI50: 26.2 µM (inactive)
KM12
  GI50: 16.8 µM (inactive)
MDA-MB-231
  GI50: 12.9 µM (inactive)
SF-295
  GI50: 27 µM (inactive)
SF-539
  GI50: 15.2 µM (inactive)
SK-MEL-5
  GI50: 15.8 µM (inactive)
SK-OV-3
  GI50: 28.6 µM (inactive)
SNB-19
  GI50: 29.2 µM (inactive)
SW-620
  GI50: 21.5 µM (inactive)
T47D
  GI50: 20.6 µM (inactive)
U-251
  GI50: 29.9 µM (inactive)
UO-31
  GI50: 23 µM (inactive)

## CCOC(=O)CCC(NC(=O)c1ccc(OCc2ccc3nc(OC)c(OC)nc3c2)cc1)C(=O)OCC (stereo not given)
786-0
  GI50: > 100 µM (inactive)
A498
  GI50: 71 µM (inactive)
A549
  GI50: > 100 µM (inactive)
CAKI-1
  GI50: > 100 µM (inactive)
HCT-15
  GI50: 75.5 µM
Hs-578T
  GI50: 33.9 µM (inactive)
KM12
  GI50: > 100 µM (inactive)
NCI-H522
  GI50: 24.7 µM (inactive)
SF-295
  GI50: 59.4 µM (inactive)
SF-539
  GI50: 57.3 µM (inactive)
SK-MEL-5
  GI50: 38.4 µM (inactive)
SK-OV-3
  GI50: > 100 µM (inactive)
SNB-19
  GI50: 74.3 µM (inactive)
SW-620
  GI50: > 100 µM (inactive)
T47D
  GI50: 31.7 µM (inactive)
U-251
  GI50: > 100 µM (inactive)
UACC-257
  GI50: 29.1 µM (inactive)
UO-31
  GI50: 64.6 µM (inactive)

## O=C1CCN2C(=N1)Sc1ccccc12
786-0
  GI50: > 100 µM (inactive)
A549
  GI50: > 100 µM (inactive)
CAKI-1
  GI50: > 100 µM (inactive)
HCT-15
  GI50: > 100 µM
Hs-578T
  GI50: > 100 µM (inactive)
KM12
  GI50: > 100 µM (inactive)
MDA-MB-231
  GI50: > 100 µM (inactive)
NCI-H522
  GI50: > 100 µM (inactive)
SF-295
  GI50: > 100 µM (inactive)
SF-539
  GI50: > 100 µM (inactive)
SK-MEL-5
  GI50: > 100 µM (inactive)
SK-OV-3
  GI50: > 100 µM (inactive)
SNB-19
  GI50: > 100 µM (inactive)
SW-620
  GI50: > 100 µM (inactive)
T47D
  GI50: > 100 µM (inactive)
U-251
  GI50: > 100 µM (inactive)
UACC-257
  GI50: > 100 µM (inactive)

## CN(C(=O)Cc1cc(Cl)c(Cl)cc1NC(=O)CN)[C@H]1CCCC[C@@H]1N1CCCC1
786-0
  GI50: 16.3 µM (inactive)
A498
  GI50: 20.2 µM (inactive)
A549
  GI50: 39.1 µM (inactive)
CAKI-1
  GI50: > 100 µM (inactive)
HCT-15
  GI50: 37 µM
Hs-578T
  GI50: 23.1 µM (inactive)
KM12
  GI50: 47.4 µM (inactive)
MDA-MB-231
  GI50: 23.3 µM (inactive)
SF-295
  GI50: 24.2 µM (inactive)
SK-OV-3
  GI50: > 100 µM (inactive)
SNB-19
  GI50: 45.8 µM (inactive)
SW-620
  GI50: 62.7 µM (inactive)
T47D
  GI50: 25.7 µM (inactive)
U-251
  GI50: 17.8 µM (inactive)
UACC-257
  GI50: 18.6 µM (inactive)
UO-31
  GI50: 33.8 µM (inactive)

## CN1C(=O)[C@H](c2c[nH]c3ccccc23)[C@H](c2c[nH]c3ccccc23)C1=O
786-0
  GI50: > 45.2 µM (inactive)
A549
  GI50: 32.9 µM (inactive)
CAKI-1
  GI50: 2.2 µM (inactive)
HCT-15
  GI50: 24.8 µM
Hs-578T
  GI50: 31.3 µM (inactive)
KM12
  GI50: 36.1 µM (inactive)
MDA-MB-231
  GI50: 4.4 µM (inactive)
NCI-H522
  GI50: 34.2 µM (inactive)
SF-295
  GI50: 26.1 µM (inactive)
SF-539
  GI50: 21.7 µM (inactive)
SK-MEL-5
  GI50: 22 µM (inactive)
SK-OV-3
  GI50: 38.2 µM (inactive)
SNB-19
  GI50: 41.4 µM (inactive)
SW-620
  GI50: 37.1 µM (inactive)
T47D
  GI50: 87.9 µM (inactive)
U-251
  GI50: 35.4 µM (inactive)
UACC-257
  GI50: 29.5 µM (inactive)
UO-31
  GI50: 15.5 µM (inactive)

## C=C(C)[C@]12CC(C)C34OC(/C=C\C=C\CCCCCCCCC)(O[C@@H]1[C@@H]3[C@@H]1O[C@]1(CO)[C@@H](O)[C@]1(O)C(=O)C(C)=C[C@@H]41)O2 (stereo not given in full)
786-0
  GI50: 6.35 µM (inactive)
A549
  GI50: < 0.012 µM (active)
HCT-15
  GI50: 12.4 µM
Hs-578T
  GI50: 0.01 µM (active)
KM12
  GI50: 6.97 µM (inactive)
MDA-MB-231
  GI50: 0.01 µM (active)
NCI-H522
  GI50: 14.7 µM (inactive)
SF-295
  GI50: 0.01 µM (active)
SF-539
  GI50: 0.01 µM (active)
SK-MEL-5
  GI50: 11.7 µM (inactive)
SK-OV-3
  GI50: 20.3 µM (inactive)
SNB-19
  GI50: 16.6 µM (inactive)
T47D
  GI50: 11.9 µM (inactive)
U-251
  GI50: 15.5 µM (inactive)
UACC-257
  GI50: 14.7 µM (inactive)
UO-31
  GI50: 11.2 µM (inactive)

## O=C(c1ccco1)N1CCCN(C(=O)c2ccco2)C1=S
786-0
  GI50: > 100 µM (inactive)
A498
  GI50: > 100 µM (inactive)
CAKI-1
  GI50: > 100 µM (inactive)
HCT-15
  GI50: > 100 µM
Hs-578T
  GI50: > 100 µM (inactive)
KM12
  GI50: 82 µM (inactive)
MDA-MB-231
  GI50: > 100 µM (inactive)
SF-539
  GI50: 29.4 µM (inactive)
SK-MEL-5
  GI50: > 100 µM (inactive)
SK-OV-3
  GI50: > 100 µM (inactive)
SNB-19
  GI50: > 100 µM (inactive)
SW-620
  GI50: > 100 µM (inactive)
T47D
  GI50: 7.35 µM (inactive)
U-251
  GI50: > 100 µM (inactive)
UACC-257
  GI50: > 100 µM (inactive)
UO-31
  GI50: > 100 µM (inactive)
